Our source for the TGI and GI50 values is PubChem BioAssay (NCI).

“And” between values parts separate entries of the source, which are not always exact repeats. Equal entries are not always repeated.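 Cells were grown in 96-well plates and exposed to each compound for 48 hours at five concentrations; endpoints were interpolated linearly between bracketing concentrations, or set to the highest concentration if not reached. The concentration for 50% growth inhibition is given as GI50. TGI: concentration producing complete growth inhibition.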

Holding throughout (assay): inhibition of tumour cell growth, NCI panel, 48 h
Assay [1] relates to SK-MEL-2 melanoma.
In assay [2] the test system is ACHN renal.
For assay [3], the system named is HCT-15 colon.
Assay [4] deals with HS 578T breast.
Assay [5] deals with CCRF-CEM leukemia.
Assay [6] has as its system NCI-H460 lung.
In assay [7] the test system is CAKI-1 renal.
Assay [8] relates to OVCAR-3 ovarian.
Assay [9] relates to SF-268 CNS.
Assay [10] concerns HCT-116 colon.
The subject of assay [11] is A549 NSCLC.
The test system of assay [12] is RPMI-8226 leukemia.
For assay [13], the system named is MCF7 breast.
Assay [14] deals with BT-549 breast.
Assay [15] has as its system DU-145 prostate.
Assay [16] deals with NCI/ADR-RES ovarian.
The test system of assay [17] is MDA-N.

On to `O=C1c2ccccc2C(=O)N1/N=C1/SC(=Nc2ccccc2)C(=Nc2ccccc2)N1c1ccccc1`, for which the TGI in assay [1] is > 100 µM; in assay [2], > 100 µM; in assay [3] it was > 100 µM; in assay [4], > 100 µM; in assay [5] it was > 90.3 µM; in assay [6], > 100 µM. In addition, the TGI in [7] is > 100 µM; in assay [8], > 100 µM; in [9] it was > 100 µM; in assay [10], > 100 µM; in assay [11], > 100 µM; in assay [12] it was > 79.1 µM. Besides, the TGI in assay [13], in assay [14], in assay [15] and in assay [16] was > 100 µM each time.
With `OCC(O)COCn1cc(Cn2ncc3c(SCc4ccccc4)ncnc32)nn1` (centres undefined), the TGI in assay [1], in assay [2], in assay [3], in [5], in assay [7] and in assay [8] was > 100 µM each time. The TGI in [9], in assay [10], in assay [11], in [12], in [13] and in assay [14] was > 100 µM throughout. Moreover, the TGI in assay [15] and in [16] was > 100 µM each time.
With `COc1cc2c(cc1OS(C)(=O)=O)N=C[C@@H]1CCCN1C2=O`, the TGI in assay [1], in assay [2], in [3], in [4], in assay [5] and in [6] was > 100 µM in each case. The TGI in assay [7], in assay [8], in assay [9], in assay [10], in [11] and in [12] was > 100 µM in each case. Besides, the TGI in [13] and in assay [15] was > 100 µM throughout.
For the molecule `COC(=O)c1cc2ccc(O)c(O)c2cn1`, the TGI in [1] was 34.3 µM; in [2], 43.6 µM; in assay [3], 40.4 µM; in [5] it was > 100 µM; in [6], 37.4 µM; in assay [7], 25.7 µM. Further, the TGI in assay [8] was 30.8 µM; in assay [9], 30.8 µM; in assay [10] it was 29.2 µM; in assay [11], 63.1 µM; in [12] it was > 100 µM; in [13], 8.1 µM. The TGI in [17] was 2.89 µM and 3.69 µM; in [15], > 100 µM; in assay [16], 46.1 µM. Also, the GI50 in [5] was 4.62 µM; in assay [17] it was 1.89 µM; in assay [16] it was 20.4 µM.
Take `CC1(C)CNC(=O)C2(CCCO2)CNC(C)(C)CNC(=O)C2(CCCO2)CN1` (centres undefined): the TGI in assay [2], in [3], in assay [4], in assay [5], in [7] and in assay [8] was > 10 µM each time. Besides, the TGI in assay [9], in assay [10], in assay [11], in [12], in [13] and in [14] was > 10 µM each time. Besides, the TGI in assay [15] and in assay [16] was > 10 µM each time.
With `O=C(O)CN1CCSc2ccccc2CN(CC(=O)O)CCSc2ccccc2C1`, the TGI in assay [1], in assay [2], in [3], in [5], in assay [6] and in assay [7] was > 100 µM each time. The TGI in [8], in assay [9], in assay [10], in assay [11] and in assay [12] was > 100 µM in each case.
On to `NC(N)=N/N=C/c1c(-c2ccccc2[N+](=O)[O-])nc2sccn12`, for which the TGI in assay [1] is 30.4 µM; in assay [2], > 100 µM; in assay [3] it was > 100 µM; in [4] it was > 100 µM; in assay [5], 55 µM; in [6], 39.7 µM. In addition, the TGI in [7] is > 100 µM; in assay [8] it was > 100 µM; in [9], > 100 µM; in assay [10] it was 34.4 µM; in assay [11], > 100 µM; in assay [12], 42.8 µM. The TGI in assay [13] is 38.1 µM; in assay [14], > 100 µM; in assay [15], > 100 µM; in assay [16], > 100 µM.
With `NC(N)=N/N=C\c1c(-c2cccc([N+](=O)[O-])c2)nc2sccn12`, the TGI was 6.49 µM in [1]; 5.68 µM in assay [2]; > 100 µM in assay [3]; 38.1 µM in [4]; > 100 µM in [5]; 78.7 µM in [6]. Further, the TGI in assay [7] is 45.3 µM; in [8] it was 6.29 µM; in assay [10] it was > 100 µM; in assay [11], 51.6 µM; in [12], > 100 µM; in assay [14], 4.06 µM. Besides, the TGI in assay [15] was 20.8 µM; in assay [16] it was > 100 µM.
Regarding `CC(C)OC(=O)NCCn1cc(-c2ccccc2)nn1`, the TGI in assay [1], in [2], in assay [3], in assay [5], in assay [6] and in assay [7] was > 100 µM throughout. The TGI in assay [9], in assay [10], in assay [11], in assay [12], in assay [13] and in [14] was > 100 µM throughout. The TGI in [15] and in [16] was > 100 µM in each case.
Turning to `CC(=O)OCC1OC(N2C(=O)[C@@H](Oc3ccccc3)[C@H]2/C=C/c2ccccc2)C(OC(C)=O)C(OC(C)=O)C1OC(C)=O` (some centres undefined), the TGI in assay [1], in [2], in assay [3], in assay [5], in [6] and in assay [8] was > 100 µM in each case. Moreover, the TGI in [9], in assay [10], in assay [11] and in assay [12] was > 100 µM in each case.
With `O=C(Cc1ccccc1)NN1C(=O)C(Cl)C1c1ccc(Cl)cc1` (centres undefined), the TGI in assay [1], in [2], in assay [3], in [5], in assay [6] and in assay [7] was > 100 µM each time. Also, the TGI in assay [8], in [9], in [10], in assay [11] and in assay [12] was > 100 µM throughout.
In the case of `COc1cc([C@@H]2c3cc4c(cc3[C@H](OC3OC5COC(c6ccco6)OC5C(O)C3O)C3COC(=O)[C@@H]32)OCO4)cc(OC)c1OC` (some centres undefined), the TGI was > 69.8 µM in [1]; > 59.3 µM in [2]; > 100 µM in assay [3]; > 100 µM in [4]; > 69.9 µM in assay [7]; > 24.6 µM in assay [8]. Moreover, the TGI in assay [9] is > 100 µM; in assay [10], > 100 µM; in assay [11] it was > 100 µM; in assay [12], > 100 µM; in assay [13] it was > 53.6 µM; in assay [14], 85.7 µM. The results for the TGI in assay [15] and in assay [16] were > 100 µM and > 80.1 µM, respectively.
In the case of `Cc1nnc2n1N=C(c1cc(F)c(Cl)cc1Cl)/C(=C/c1ccc(-c3ccc([N+](=O)[O-])cc3)o1)S2`, the TGI in [1], in assay [2], in assay [3], in [4], in assay [5] and in assay [6] was > 100 µM each time. Also, the TGI in assay [7], in assay [8], in assay [9], in assay [10], in assay [11] and in assay [12] was > 100 µM each time. In addition, the TGI in assay [13], in assay [14] and in assay [16] was > 100 µM each time.
As to `COc1cc(CN=c2nc(N(C)C)ss2)cc(OC)c1OC`, the TGI in assay [2] is > 10 µM; in [3], > 10 µM; in assay [4], > 10 µM; in assay [5], 1.56 µM; in [6], > 10 µM; in assay [7], > 10 µM. The TGI in assay [8] was > 10 µM; in assay [9] it was > 10 µM; in [10], > 10 µM; in assay [11], > 10 µM; in assay [12] it was > 7.37 µM; in assay [13], > 10 µM. For the same molecule, the TGI in [17], in assay [15] and in assay [16] was > 10 µM in each case.
On to `COC(=NC(C)C)NC(C)C`, for which the TGI in assay [1], in [2], in [3], in assay [4], in [5] and in assay [6] was > 100 µM in each case. Besides, the TGI in assay [9], in [10], in [11], in assay [12], in assay [13] and in assay [17] was > 100 µM throughout. The TGI in [15] and in assay [16] was > 100 µM throughout.
For `Cc1nc2ccc(F)cc2c2c1CCS2`, the TGI in assay [2], in [3], in assay [4], in [5], in [6] and in assay [8] was > 100 µM in each case. Also, the TGI in assay [9], in [10], in assay [11], in assay [12], in assay [13] and in assay [14] was > 100 µM each time. For the same molecule, the TGI in assay [15] and in [16] was > 100 µM each time.
`CCCCCCCCCCCCCCCCOCC(COP(=O)(O)OCC1OC(n2cc(CC)c(=O)[nH]c2=O)CC1O)OC(=O)CCCCCCCCCCCCCCC` (centres undefined): the TGI in assay [1], in assay [2], in assay [3], in [4], in assay [5] and in [7] was > 100 µM each time. The TGI in assay [8], in assay [9], in assay [10], in [11], in assay [12] and in [13] was > 100 µM each time. For the same molecule, the TGI in assay [15] and in assay [16] was > 100 µM in each case.
For the molecule `CCN(CC)C(=O)CCn1ccc(=O)[nH]c1=O`, the TGI in assay [1], in assay [2], in [3], in assay [5], in assay [6] and in assay [8] was > 100 µM each time. The TGI in assay [9], in [10], in assay [11] and in [12] was > 100 µM each time.
As for `COc1cc2nc(-c3cccs3)nc(Nc3cccc([N+](=O)[O-])c3)c2cc1OC`, the TGI was 39.8 µM in assay [1]; 38.3 µM in assay [2]; 31.8 µM in assay [3]; 70.5 µM in assay [4]; > 100 µM in assay [5]; 77.1 µM in assay [6]. The TGI in [7] is 36.8 µM; in assay [8] it was 36.6 µM; in assay [9] it was 43.6 µM; in assay [10] it was 32.8 µM; in assay [11], 53.8 µM; in assay [12] it was 98.3 µM. For the same molecule, the TGI came to 59.1 µM in assay [13], 39.7 µM in assay [14], 30 µM in [15] and 46.9 µM in [16].
